Calls of active or inactive are those of the source. No cut-off for these calls is given here.
What was measured:
[1] = tested on: Rattus norvegicus; test: Antiinflammatory activity in rat assessed as inhibition of carrageenan-induced paw edema at 250 mg/kg administered via gavage relative to control; assay type: functional
[2] = tested on: Rattus norvegicus; test: Antiinflammatory activity in rat adjuvant-induced arthritis model assessed as mean surface area of paw at 50 mg/kg/day administered via gavage relative to control; assay type: functional
[3] = tested on: Rattus norvegicus; test: Antiinflammatory activity in rat adjuvant-induced arthritis model assessed as mean surface area of paw at 250 mg/kg administered via gavage relative to control; assay type: functional, organism-based; set-up: dose 250 mg/kg
[4] = tested on: Rattus norvegicus; test: Antiinflammatory activity in rat assessed as inhibition of carrageenan-induced paw edema at 50 mg/kg administered via gavage relative to control; assay type: functional
[5] = tested on: Rattus norvegicus; test: Antiinflammatory activity in rat adjuvant-induced arthritis model assessed as mean surface area of paw at 400 mg/kg/day administered via gavage relative to control; assay type: functional

In the case of `Clc1ccc(-c2nncnn2)cc1`, the C/T [1] is reported as 3.07 and the Ratio [2] is reported as 0.54.

In the case of `Fc1ccc(-c2nccnn2)cc1`, the C/T [1] is reported as 2.67 and the Activity [3] is reported as “inactive”.

`Fc1ccc(-c2nncnn2)cc1` showed a C/T [1] of 2.8 and a Ratio [2] of 0.46.

`Clc1ccc(-c2nccnn2)cc1` was tested, and the C/T [1] was 2.25 and the Activity [3] was “inactive”.

Molecule `CC(=O)Oc1ccccc1C(=O)O` [ASPIRIN] has a C/T [4] of 2.8 and a Ratio [5] of 0.55.

Source: ChEMBL document CHEMBL3243933, “3-Aryl-as-triazines as potential antiinflammatory agents” (1977)
